Measured values reported in PubChem BioAssay AID256 (DTP/NCI, 2004).
Where “and” joins values, the source holds several entries; their conditions need not be identical. Equal values may be shown once. Toxic doses and inconclusive results are not listed. The calls were made as follows: active = survival T/C of 150% or more; inactive = T/C below 125% in these data.

Test system: CD2F1 mice, L1210 leukemia ip, survival T/C
Assay: NCI In Vivo Anticancer Drug Screen. Data for tumor model L1210 Leukemia (intraperitoneal) in CD2F1 (CDF1) mice
Settings: higher = longer survival
Method in brief: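 Read-out first: treated-group measurement over vehicle-control measurement, expressed as a ratio. Animals bore a transplanted tumor line and were dosed with compound or vehicle.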

[1] = endpoint: mean survival time, dose: 50.0 mg/kg/injection, schedule: Q01DX009 (ip), vehicle: saline with Tween-80
[2] = endpoint: mean survival time, dose: 100.0 mg/kg/injection, schedule: Q01DX009 (ip), vehicle: saline with Tween-80
[3] = endpoint: mean survival time, dose: 50.0 mg/kg/injection, schedule: Q04DX002 (ip), vehicle: saline with Tween-80
[4] = endpoint: mean survival time, dose: 100.0 mg/kg/injection, schedule: Q04DX002 (ip), vehicle: saline with Tween-80
[5] = endpoint: mean survival time, dose: 200.0 mg/kg/injection, schedule: Q04DX002 (ip), vehicle: saline with Tween-80
[6] = endpoint: mean survival time, dose: 400.0 mg/kg/injection, schedule: Q04DX002 (ip), vehicle: saline with Tween-80
[7] = endpoint: mean survival time, dose: 100.0 mg/kg/injection, schedule: Q01DX001 (ip), vehicle: saline
[8] = endpoint: mean survival time, dose: 200.0 mg/kg/injection, schedule: Q01DX001 (ip), vehicle: saline
[9] = endpoint: mean survival time, dose: 100.0 mg/kg/injection, schedule: Q04DX003 (ip), vehicle: saline with Tween-80
[10] = endpoint: mean survival time, dose: 200.0 mg/kg/injection, schedule: Q04DX003 (ip), vehicle: saline with Tween-80
[11] = endpoint: mean survival time, dose: 200.0 mg/kg/injection, schedule: Q01DX009 (ip), vehicle: saline with Tween-80
[12] = endpoint: mean survival time, dose: 400.0 mg/kg/injection, schedule: Q01DX001 (ip), vehicle: saline

Measured: T/C

c1ccc(C2=C(c3ccccc3)OC(c3ccccc3)=C(c3ccccc3)O2)cc1
inactive: endpoint: mean survival time, dose: 25.0 mg/kg/injection, schedule: Q01DX009 (ip), vehicle: saline with Tween-80 92 % of control | endpoint: mean survival time, dose: 50.0 mg/kg/injection, schedule: Q01DX001 (ip), vehicle: saline with Tween-80 87 % of control | [1] 102 % of control | endpoint: mean survival time, dose: 100.0 mg/kg/injection, schedule: Q01DX001 (ip), vehicle: saline with Tween-80 89 % of control | [2] 88 % of control

c1ccc(CCSCCSCCc2ccccn2)nc1
inactive: [3] 101 % of control | [4] 113 % of control | [5] 101 % of control | [6] 93 % of control

O=c1ccc(OS(=O)(=O)c2ccccc2)n[nH]1
inactive: [4] 95 % of control | [5] 87 % of control | [6] 104 % of control

O=P1(Oc2ccccc2)NCC(Br)CO1 (stereo unspecified)
inactive: endpoint: mean survival time, dose: 18.8 mg/kg/injection, schedule: Q01DX001 (ip), vehicle: other 98 % of control | endpoint: mean survival time, dose: 31.25 mg/kg/injection, schedule: Q01DX001 (ip), vehicle: other 104 % of control | endpoint: mean survival time, dose: 37.5 mg/kg/injection, schedule: Q01DX001 (ip), vehicle: other 98 % of control | endpoint: mean survival time, dose: 62.5 mg/kg/injection, schedule: Q01DX001 (ip), vehicle: other 107 % of control | endpoint: mean survival time, dose: 75.0 mg/kg/injection, schedule: Q01DX001 (ip), vehicle: other 105 % of control | endpoint: mean survival time, dose: 125.0 mg/kg/injection, schedule: Q01DX001 (ip), vehicle: other 94 % of control | endpoint: mean survival time, dose: 150.0 mg/kg/injection, schedule: Q01DX001 (ip), vehicle: other 113 % of control | endpoint: mean survival time, dose: 250.0 mg/kg/injection, schedule: Q01DX001 (ip), vehicle: other 100 % of control | endpoint: mean survival time, dose: 300.0 mg/kg/injection, schedule: Q01DX001 (ip), vehicle: other 107 % of control | endpoint: mean survival time, dose: 500.0 mg/kg/injection, schedule: Q01DX001 (ip), vehicle: other 100 % of control

N#CCCN=C1C=CC(=C(c2ccccc2)c2ccc(NCCC#N)cc2)C=C1
inactive: [4] 103 % of control | [5] 103 % of control | [6] 107 % of control

C[Si](C)(C)Oc1ccc(OCc2ccccc2)cc1
inactive: [3] 87 % of control | [4] 87 % of control | [5] 95 % of control | [6] 95 % of control

[Cl][Pt+2][Cl].[NH-]c1cc2ccccc2cc1[NH-]
inactive: endpoint: mean survival time, dose: 2.5 mg/kg/injection, schedule: Q01DX009 (ip), vehicle: saline with Tween-80 102 % of control | endpoint: mean survival time, dose: 5.0 mg/kg/injection, schedule: Q01DX009 (ip), vehicle: saline with Tween-80 109 % of control | endpoint: mean survival time, dose: 10.0 mg/kg/injection, schedule: Q01DX009 (ip), vehicle: saline with Tween-80 109 % of control | endpoint: mean survival time, dose: 20.0 mg/kg/injection, schedule: Q01DX009 (ip), vehicle: saline with Tween-80 100 % of control and 112 % of control | endpoint: mean survival time, dose: 40.0 mg/kg/injection, schedule: Q01DX009 (ip), vehicle: saline with Tween-80 105 % of control and 111 % of control | endpoint: mean survival time, dose: 80.0 mg/kg/injection, schedule: Q01DX009 (ip), vehicle: saline with Tween-80 105 % of control | endpoint: mean survival time, dose: 160.0 mg/kg/injection, schedule: Q01DX009 (ip), vehicle: saline with Tween-80 106 % of control | endpoint: mean survival time, dose: 320.0 mg/kg/injection, schedule: Q01DX009 (ip), vehicle: saline with Tween-80 111 % of control

COc1ccc(CCNC(C)Cc2ccc(OC)c(OC)c2)cc1OC (stereo unspecified)
inactive: endpoint: mean survival time, dose: 12.5 mg/kg/injection, schedule: Q01DX009 (ip), vehicle: water 104 % of control | endpoint: mean survival time, dose: 25.0 mg/kg/injection, schedule: Q01DX009 (ip), vehicle: water 101 % of control | endpoint: mean survival time, dose: 50.0 mg/kg/injection, schedule: Q01DX009 (ip), vehicle: water 103 % of control

N/N=C(\N)c1ccccc1
inactive: [7] 117 % of control | [8] 123 % of control

CCOC(=O)/C(C#N)=C\c1cc([N+](=O)[O-])ccc1Cl
inactive: [9] 89 % of control | [10] 108 % of control | endpoint: mean survival time, dose: 400.0 mg/kg/injection, schedule: Q04DX003 (ip), vehicle: saline with Tween-80 108 % of control

Cc1cc(=O)[nH]c2ccccc12
inactive: [1] 96 % of control | [7] 98 % of control | [2] 96 % of control | [8] 98 % of control | [11] 103 % of control | [12] 102 % of control

O=C(CSCCN1CCCCC1)N1c2ccccc2Sc2ccccc21
inactive: endpoint: mean survival time, dose: 12.5 mg/kg/injection, schedule: Q04DX003 (ip), vehicle: saline 104 % of control | endpoint: mean survival time, dose: 25.0 mg/kg/injection, schedule: Q04DX003 (ip), vehicle: saline 101 % of control | endpoint: mean survival time, dose: 50.0 mg/kg/injection, schedule: Q04DX003 (ip), vehicle: saline 101 % of control

Cc1ccc(C2=C(O)C(=O)C(c3ccc(C)cc3)C2=O)cc1 (stereo unspecified)
inactive: [9] 93 % of control | [10] 96 % of control

CCC1c2cc(O)c(OC)cc2CCN1C (stereo unspecified)
inactive: endpoint: mean survival time, dose: 75.0 mg/kg/injection, schedule: Q01DX001 (ip), vehicle: saline 106 % of control

CCc1ccc(N=Nc2ccc(N(C)C)cc2)cc1CC
inactive: endpoint: mean survival time, dose: 75.0 mg/kg/injection, schedule: Q04DX002 (ip), vehicle: saline with Tween-80 92 % of control | endpoint: mean survival time, dose: 150.0 mg/kg/injection, schedule: Q04DX002 (ip), vehicle: saline with Tween-80 92 % of control | endpoint: mean survival time, dose: 300.0 mg/kg/injection, schedule: Q04DX002 (ip), vehicle: saline with Tween-80 88 % of control

Nc1ncnc2c(C3OC(CO)C(O)C3O)c[nH]c12 (stereo unspecified)
inactive: endpoint: median survival time, dose: 0.05 mg/kg/injection, schedule: Q01DX005 (ip), vehicle: saline 114 % of control and 121 % of control | endpoint: median survival time, dose: 0.1 mg/kg/injection, schedule: Q01DX005 (ip), vehicle: saline 116 % of control and 123 % of control | endpoint: median survival time, dose: 0.4 mg/kg/injection, schedule: Q01DX005 (ip), vehicle: saline 115 % of control | endpoint: median survival time, dose: 0.8 mg/kg/injection, schedule: Q01DX005 (ip), vehicle: saline 102 % of control and 104 % of control

CC(=O)OCC1OC(n2cnc3c(Cl)ncnc32)C(OC(C)=O)C1OC(C)=O (stereo unspecified)
inactive: endpoint: mean survival time, dose: 12.5 mg/kg/injection, schedule: Q01DX005 (ip), vehicle: other 94 % of control | endpoint: mean survival time, dose: 25.0 mg/kg/injection, schedule: Q01DX005 (ip), vehicle: other 88 % of control | endpoint: mean survival time, dose: 50.0 mg/kg/injection, schedule: Q01DX005 (ip), vehicle: other 98 % of control | endpoint: mean survival time, dose: 100.0 mg/kg/injection, schedule: Q01DX005 (ip), vehicle: other 96 % of control | endpoint: mean survival time, dose: 200.0 mg/kg/injection, schedule: Q01DX005 (ip), vehicle: other 100 % of control | endpoint: mean survival time, dose: 400.0 mg/kg/injection, schedule: Q01DX005 (ip), vehicle: other 102 % of control

Cc1cc(OC(=S)N(C)C)c(S(=O)(=O)F)cc1Cl
inactive: [4] 95 % of control | [5] 98 % of control | [6] 95 % of control

CCCCOC(=O)c1ccccc1
inactive: [2] 102 % of control | [11] 104 % of control

O=C(c1ccccc1)C(C(O)CCl)C(O)(C(F)(F)F)C(F)(F)F (stereo unspecified)
inactive: [2] 94 % of control | [11] 94 % of control

NC1CC(N)C(O)C(O)C1O (stereo unspecified)
inactive: [7] 95 % of control | [4] 103 % of control | [8] 100 % of control | [5] 103 % of control | [12] 94 % of control | [6] 95 % of control

CCCCCc1cccc(CC(=O)OCC)n1
inactive: endpoint: mean survival time, dose: 100.0 mg/kg/injection, schedule: Q04DX003 (ip), vehicle: saline 89 % of control | endpoint: mean survival time, dose: 200.0 mg/kg/injection, schedule: Q04DX003 (ip), vehicle: saline 94 % of control | endpoint: mean survival time, dose: 400.0 mg/kg/injection, schedule: Q04DX003 (ip), vehicle: saline 94 % of control
